In the assay the target is human H4 receptor (Homo sapiens, UniProt Q9H3N8). Put plainly: biochemical.

Where a name gives a salt, the structure may show the parent alone. A value given as a limit tells only on which side of the number the result lay.
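Note: radioligand displacement of a [3H]-labelled ligand from membranes of CHO cells stably expressing human H4 receptor, bound radioactivity counted on filters by liquid scintillation.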

Sequence of human H4 receptor (Q9H3N8 whole entry): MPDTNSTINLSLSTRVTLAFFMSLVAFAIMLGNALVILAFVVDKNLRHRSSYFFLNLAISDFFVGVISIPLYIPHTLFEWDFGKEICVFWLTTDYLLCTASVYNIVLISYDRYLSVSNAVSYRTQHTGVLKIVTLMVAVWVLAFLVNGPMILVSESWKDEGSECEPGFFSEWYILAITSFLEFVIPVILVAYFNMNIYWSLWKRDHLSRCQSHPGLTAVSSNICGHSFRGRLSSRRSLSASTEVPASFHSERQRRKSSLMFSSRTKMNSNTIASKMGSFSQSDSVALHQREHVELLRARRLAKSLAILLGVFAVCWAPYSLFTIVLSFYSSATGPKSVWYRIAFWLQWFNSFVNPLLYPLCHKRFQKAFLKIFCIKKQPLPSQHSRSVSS

Take `Cc1ccc(-c2cn3c(n2)C(OC2CCN(C)CC2)c2ccccc2CC3)c(C)c1` (stereo not shown) [Example 61, 2-(2,4-dimethylphenyl)-4-(1-methylpiperidin-4-yloxy)-9,10-dihydro-4H-3,10a-diaza-benzo[f]azulene]: the inhibition constant Ki is below 300 nM.
In turn, `CN1CCC(OC2c3ccccc3CCn3cc(Sc4ccccc4)nc32)CC1` (stereo not shown) [Example 73, 4-(1-methylpiperidin-4-yloxy)-2-phenylsulfanyl-9,10-dihydro-4H-3,10a-diaza-benzo[f]azulene oxalate] returned an inhibition constant (Ki) below 300 nM.
Next, `CN1CCC(OC2c3ccccc3CCn3cc(-c4ccc(CN5C(=O)OC(C)(C)C5=O)cc4)nc32)CC1` (stereo not shown) [Example 198, 5,5-dimethyl-3-{4-[4-(1-methylpiperidin-4-yloxy)-9,10-dihydro-4H-3,10a-diaza-benzo[f]azulen-2-yl]benzyl}-oxazolidine-2,4-dione]: below 300 nM; `CN1CCC(OC2c3ccccc3CCn3cc(-c4ccncc4)nc32)CC1` (stereo not shown) [Example 44, 4-(1-methylpiperidin-4-yloxy)-2-pyridin-4-yl-9,10-dihydro-4H-3,10a-diaza-benzo[f]azulene oxalate]: below 1000 nM.
Next, `Cc1c(-c2ccc(C(=O)N3CCC(=O)CC3)cc2)nc2n1CCc1ccccc1C2OC1CCN(C)CC1` (stereo not shown) [Example 218, 1-{4-[1-methyl-4-(1-methylpiperidin-4-yloxy)-9,10-dihydro-4H-3,10a-diaza-benzo[f]azulen-2-yl]-benzoyl}-piperidin-4-one]: below 300 nM; `Cc1c(-c2ccc(SCCNC(=O)OC(C)(C)C)cc2)nc2n1CCc1ccccc1C2OC1CCN(C)CC1` (stereo not shown) [Example 160, (2-{4-[1-methyl-4-(1-methylpiperidin-4-yloxy)-9,10-dihydro-4H-3,10a-diaza-benzo[f]azulen-2-yl]-phenylsulfanyl}-ethyl)-carbamic acid tert-butyl ester oxalate]: below 30 nM; `Cc1ccc(-c2cn3c(n2)C(OC2CCN(C)CC2)c2ccccc2CC3)o1` (stereo not shown) [Example 51, 2-(5-methylfuran-2-yl)-4-(1-methylpiperidin-4-yloxy)-9,10-dihydro-4H-3,10a-diaza-benzo[f]azulene oxalate]: below 300 nM.
The compound `CN1CCC(OC2c3ccccc3CCn3cc(-c4ccccc4CO)nc32)CC1` (stereo not shown) [Example 179, {2-[4-(1-methylpiperidin-4-yloxy)-9,10-dihydro-4H-3,10a-diaza-benzo[f]azulen-2-yl]-phenyl}-methanol oxalate] had a Ki below 300 nM.
In the case of `CN1CCC(OC2c3ccccc3CCn3cc(-c4ccc(CN5CCCCC5=O)cc4)nc32)CC1` (stereo not shown) [Example 185, 1-{4-[4-(1-methylpiperidin-4-yloxy)-9,10-dihydro-4H-3,10a-diaza-benzo[f]azulen-2-yl]benzyl}-piperidin-2-one] it was below 300 nM; in that of `CC(C)Cc1ccc(-c2cn3c(n2)C(OC2CCN(C)CC2)c2ccccc2CC3)cc1` (stereo not shown) [Example 28, 2-(4-isobutylphenyl)-4-(1-methylpiperidin-4-yloxy)-9,10-dihydro-4H-3,10a-diaza-benzo[f]azulene], below 30 nM; in that of `CN1CCC(OC2c3ccccc3CCn3cc(-c4ccco4)nc32)CC1` (stereo not shown) [Example 24, 2-furan-2-yl-4-(1-methylpiperidin-4-yloxy)-9,10-dihydro-4H-3,10a-diaza-benzo[f]azulene], below 300 nM.
In the case of `Cc1c(-c2ccc(NC(=O)OC3CCCC3)cc2)nc2n1CCc1ccccc1C2OC1CCN(C)CC1` (stereo not shown) [Example 172, {4-[1-methyl-4-(1-methylpiperidin-4-yloxy)-9,10-dihydro-4H-3,10a-diaza-benzo[f]azulen-2-yl]-phenyl}-carbamic acid cyclopentyl ester] it was below 30 nM; in that of `CN1CCC(OC2c3cccc(Cl)c3CCn3cc(-c4ccccc4)nc32)CC1` (stereo not shown) [Example 91, 8-chloro-4-(1-methylpiperidin-4-yloxy)-2-phenyl-9,10-dihydro-4H-3,10a-diaza-benzo[f]azulene], below 300 nM.
Next, `CN1C2CCC1CC(OC1c3ccccc3CCn3c1nc(I)c3I)C2` (stereo not shown) [Example 269, 1,2-diiodo-4-(8-methyl-8-aza-bicyclo[3.2.1]oct-3-yloxy)-9,10-dihydro-4H-3,10a-diaza-benzo[f]azulene]: below 1000 nM; `Cc1c(-c2ccc(C(=O)NC3CCC(O)CC3)cc2)nc2n1CCc1ccccc1C2OC1CCN(C)CC1` (stereo not shown) [Example 216, N-(4-hydroxycyclohexyl)-4-[1-methyl-4-(1-methylpiperidin-4-yloxy)-9,10-dihydro-4H-3,10a-diaza-benzo[f]azulen-2-yl]-benzamide]: below 300 nM; `CN1CCC(OC2c3ccccc3CCn3cc(C(C)(C)c4ccccc4)nc32)CC1` (stereo not shown) [Example 207, 2-(1-methyl-1-phenyl-ethyl)-4-(1-methylpiperidin-4-yloxy)-9,10-dihydro-4H-3,10a-diaza-benzo[f]azulene]: below 1000 nM.
In turn, `CN1CCC(OC2c3ccccc3CCn3cc(-c4ccc(C(=O)N5CCC(=O)CC5)cc4)nc32)CC1` (stereo not shown) [Example 215, 1-{4-[4-(1-methylpiperidin-4-yloxy)-9,10-dihydro-4H-3,10a-diaza-benzo[f]azulen-2-yl]-benzoyl}-piperidin-4-one] yielded a Ki below 300 nM.
In the case of `COC(=O)c1c(-c2ccccc2)nc2n1CCc1ccccc1C2OC1CCN(C)CC1` (stereo not shown) [Example 256, 4-(1-methylpiperidin-4-yloxy)-2-phenyl-9,10-dihydro-4H-3,10a-diaza-benzo[f]azulene-1-carboxylic acid methyl ester] it was below 300 nM; in that of `CN1CCC(OC2c3ccccc3CCn3cc(-c4cccn4C)nc32)CC1` (stereo not shown) [Example 83, 4-(1-methylpiperidin-4-yloxy)-2-(1-methyl-1H-pyrrol-2-yl)-9,10-dihydro-4H-3,10a-diaza-benzo[f]azulene], below 1000 nM; in that of `CN1CCC(OC2c3ccccc3CCn3cc(-c4ccc(Cl)cc4)nc32)CC1` (stereo not shown) [Example 52, 2-(4-chloro-phenyl)-4-(1-methylpiperidin-4-yloxy)-9,10-dihydro-4H-3,10a-diaza-benzo[f]azulene oxalate], below 30 nM.
In turn, `Cc1c(-c2ccc(NC(=O)NC(C)(C)C)cc2)nc2n1CCc1ccccc1C2OC1CCN(C)CC1` (stereo not shown) [Example 209, 1-tertbutyl-3-{4-[1-methyl-4-(1-methylpiperidin-4-yloxy)-9,10-dihydro-4H-3,10a-diaza-benzo[f]azulen-2-yl]-phenyl}-urea] yielded a Ki below 30 nM.
Compound `CCOC(=O)c1nc2n(c1C)CCc1ccccc1C2OC1CCN(C)CC1` (stereo not shown) [Example 118, 1-methyl-4-(1-methylpiperidin-4-yloxy)-9,10-dihydro-4H-3,10a-diaza-benzo[f]azulene-2-carboxylic acid ethyl ester] yielded an inhibition constant (Ki) below 1000 nM.
Consider `CN1CCC(OC2c3ccccc3CCn3c2nc(-c2ccccc2Cl)c3C(N)=O)CC1` (stereo not shown) [Example 273, 2-(2-chlorophenyl)-4-(1-methylpiperidin-4-yloxy)-9,10-dihydro-4H-3,10a-diaza-benzo[f]azulene-1-carboxylic acid amide], for which the Ki was below 300 nM.
In the case of `Ic1nc2n(c1I)CCc1ccccc1C2OCCN1CCCCC1` (stereo not shown) [Example 265, 1,2-diiodo-4-(2-piperidin-1-yl-ethoxy)-9,10-dihydro-4H-3,10a-diaza-benzo[f]azulene] it was below 1000 nM; in that of `CN1CCC(OC2c3ccccc3CCn3cc(C4=CCOCC4)nc32)CC1` (stereo not shown) [Example 106, 2-(3,6-dihydro-2H-pyran-4-yl)-4-(1-methyldpiperidin-4-yloxy)-9,10-dihydro-4H-3,10a-diaza-benzo[f]azulene], below 1000 nM; in that of `Cc1c(-c2ccc(N3CCCCC3=O)cc2)nc2n1CCc1ccccc1C2OC1CCN(C)CC1` (stereo not shown) [Example 162, 1-{4-[1-methyl-4-(1-methylpiperidin-4-yloxy)-9,10-dihydro-4H-3,10a-diaza-benzo[f]azulen-2-yl]-phenyl}-piperidin-2-one oxalate], below 300 nM.
The compound `COCCC(=O)NCc1ccc(-c2cn3c(n2)C(OC2CCN(C)CC2)c2ccccc2CC3)cc1` (stereo not shown) [Example 138, 3-methoxy-N-{4-[4-(1-methylpiperidin-4-yloxy)-9,10-dihydro-4H-3,10a-diaza-benzo[f]azulen-2-yl]-benzyl}-propionamide] registered a Ki below 1000 nM.
Next, `Cc1c(-c2ccc(SCCNC(=N)N)cc2)nc2n1CCc1ccccc1C2OC1CCN(C)CC1` (stereo not shown) [Example 211, N-(2-{4-[1-methyl-4-(1-methylpiperidin-4-yloxy)-9,10-dihydro-4H-3,10a-diaza-benzo[f]azulen-2-yl]-phenylsulfanyl}-ethyl)-guanidine]: below 30 nM; `CN1CCC(OC2c3ccccc3CCn3cc(C=CCC4CCCC4)nc32)CC1` (stereo not shown) [Example 104, 2-(3-cyclopentylpropenyl)-4-(1-methylpiperidin-4-yloxy)-9,10-dihydro-4H-3,10a-diaza-benzo[f]azulene]: below 30 nM.
Next, `Cc1c(-c2ccc(C3=CCCCC3)cc2)nc2n1CCc1ccccc1C2OC1CCN(C)CC1` (stereo not shown) [Example 170, 2-(4-cyclohex-1-enylphenyl)-1-methyl-4-(1-methylpiperidin-4-yloxy)-9,10-dihydro-4H-3,10a-diaza-benzo[f]azulene]: below 30 nM; `CN1CCC(OC2c3ccccc3CCn3cc(-c4ccc(CCO)cc4)nc32)CC1` (stereo not shown) [Example 192, 2-{4-[4-(1-methylpiperidin-4-yloxy)-9,10-dihydro-4H-3,10a-diaza-benzo[f]azulen-2-yl]-phenyl}-ethanol]: below 300 nM; `Cc1c(C#CCCO)nc2n1CCc1ccccc1C2OC1CCN(C)CC1` (stereo not shown) [Example 227, 4-[1-methyl-4-(1-methylpiperidin-4-yloxy)-9,10-dihydro-4H-3,10a-diaza-benzo[f]azulen-2-yl]-but-3-yn-1-ol]: below 300 nM.
Next, `Cc1c(CCC(C)(C)C)nc2n1CCc1ccccc1C2OC1CCN(C)CC1` (stereo not shown) [Example 229, 2-(3,3-dimethyl-butyl)-1-methyl-4-(1-methylpiperidin-4-yloxy)-9,10-dihydro-4H-3,10a-diaza-benzo[f]azulene]: below 30 nM; `Cc1c(-c2ccc(C(=O)N3CCC(O)CC3)cc2)nc2n1CCc1ccccc1C2OC1CCN(C)CC1` (stereo not shown) [Example 220, (4-hydroxypiperidin-1-yl)-{4-[1-methyl-4-(1-methylpiperidin-4-yloxy)-9,10-dihydro-4H-3,10a-diaza-benzo[f]azulen-2-yl]-phenyl}-methanone]: below 300 nM.

The record behind these values is US9255101B2 (BIOPROJECT, priority 2012, dated 2016).
